Values after ≈ are worked out from the molar mass of the structure shown.

A word on the IC50: it is the concentration that gives 50% inhibition. What is called MIC is the least concentration at which growth counts as inhibited.

One assay has as its system MDA-MB-231. Put plainly: Cytotoxicity against human MDA-MB-231 cells assessed as reduction in cell viability by CCK-8 assay. Format: functional, cell-based. On the technique in general: Tetrazolium assays rely on reduction of a dye to a coloured formazan, in cell work by metabolically active cells.
On to `CC[C@@]1(C)CCC[C@]2(C)[C@H]3C[C@H](OC(=O)CCC(C)C)[C@]4(C)C(C(=O)O)=CC[C@H]4[C@]3(C)CC[C@@H]12`, for which the IC50 was above 50 µM.

In the case of `CCCCC(=O)O[C@H]1C[C@@H]2[C@@]3(C)CCC[C@](C)(CC)[C@@H]3CC[C@@]2(C)[C@@H]2CC=C(C=O)[C@@]12C`, the IC50 was above 50 µM.

Regarding `Cn1nnc2c(C(N)=O)ncn2c1=O` [TEMOZOLOMIDE], the IC50 was 14.4 µM.

Tested on in a further assay: not listed separately
Kind of assay: Cytotoxicity against human Enzalutamide-resistant LNCaP C4-2 cells assessed as reduction in cell viability by CCK-8 assay. It counts as functional, cell-based.
For the molecule `CC[C@@]1(C)CCC[C@]2(C)[C@H]3C[C@H](OC(=O)CCC(C)C)[C@]4(C)C(C(=O)O)=CC[C@H]4[C@]3(C)CC[C@@H]12`, the IC50 amounted to 3.7 µM.

With `CCCCC(=O)O[C@H]1C[C@@H]2[C@@]3(C)CCC[C@](C)(CC)[C@@H]3CC[C@@]2(C)[C@@H]2CC=C(C=O)[C@@]12C`, the IC50 came out at 5.7 µM.

For the molecule `Cn1nnc2c(C(N)=O)ncn2c1=O` [TEMOZOLOMIDE], the IC50 amounted to 18.2 µM.

In a further assay the test system is Vibrio parahaemolyticus. Put plainly: Antibacterial activity against Vibrio parahaemolyticus assessed as bacterial growth inhibition. Format: functional.
Turning to `CC[C@@]1(C)CCC[C@]2(C)[C@H]3C[C@H](OC(=O)CCC(C)C)[C@]4(C)C(C(=O)O)=CC[C@H]4[C@]3(C)CC[C@@H]12`, the MIC was 2 µg/mL (≈ 4.23 µM).

In the case of `CCCCC(=O)O[C@H]1C[C@@H]2[C@@]3(C)CCC[C@](C)(CC)[C@@H]3CC[C@@]2(C)[C@@H]2CC=C(C=O)[C@@]12C`, the MIC was determined as 4 µg/mL (≈ 9.04 µM).

For `C[C@H]1COc2c(N3CCN(C)CC3)c(F)cc3c(=O)c(C(=O)O)cn1c23` [LEVOFLOXACIN ANHYDROUS], the minimum inhibitory concentration (MIC) was determined as 0.5 µg/mL (≈ 1.38 µM).

A further assay concerns MCF7. Kind of assay: Cytotoxicity against human MCF7 cells assessed as reduction in cell viability by CCK-8 assay. It counts as functional, cell-based.
As for `CC[C@@]1(C)CCC[C@]2(C)[C@H]3C[C@H](OC(=O)CCC(C)C)[C@]4(C)C(C(=O)O)=CC[C@H]4[C@]3(C)CC[C@@H]12`, the IC50 was determined as 12.3 µM.

For `CCCCC(=O)O[C@H]1C[C@@H]2[C@@]3(C)CCC[C@](C)(CC)[C@@H]3CC[C@@]2(C)[C@@H]2CC=C(C=O)[C@@]12C`, the IC50 amounted to 7.3 µM.

The subject of another assay is HT-29. Kind of assay: Cytotoxicity against human HT-29 cells assessed as reduction in cell viability by CCK-8 assay. Format: functional, cell-based.
With `CC[C@@]1(C)CCC[C@]2(C)[C@H]3C[C@H](OC(=O)CCC(C)C)[C@]4(C)C(C(=O)O)=CC[C@H]4[C@]3(C)CC[C@@H]12`, the IC50 is 13.2 µM.

As to `CCCCC(=O)O[C@H]1C[C@@H]2[C@@]3(C)CCC[C@](C)(CC)[C@@H]3CC[C@@]2(C)[C@@H]2CC=C(C=O)[C@@]12C`, the 50% inhibitory concentration (IC50) is 8.7 µM.

The next assay concerns Enterococcus faecalis. Put plainly: Antibacterial activity against Enterococcus faecalis assessed as bacterial growth inhibition. It counts as functional.
In the case of `CC[C@@]1(C)CCC[C@]2(C)[C@H]3C[C@H](OC(=O)CCC(C)C)[C@]4(C)C(C(=O)O)=CC[C@H]4[C@]3(C)CC[C@@H]12`, the MIC worked out at 4 µg/mL (≈ 8.46 µM).

With `CCCCC(=O)O[C@H]1C[C@@H]2[C@@]3(C)CCC[C@](C)(CC)[C@@H]3CC[C@@]2(C)[C@@H]2CC=C(C=O)[C@@]12C`, the MIC came to 4 µg/mL (≈ 9.04 µM).

Take `C[C@H]1COc2c(N3CCN(C)CC3)c(F)cc3c(=O)c(C(=O)O)cn1c23` [LEVOFLOXACIN ANHYDROUS]: the MIC was determined as 0.25 µg/mL (≈ 0.692 µM).

The next assay has as its system Escherichia coli. Kind of assay: Antibacterial activity against Escherichia coli assessed as bacterial growth inhibition. It counts as functional.
`CC[C@@]1(C)CCC[C@]2(C)[C@H]3C[C@H](OC(=O)CCC(C)C)[C@]4(C)C(C(=O)O)=CC[C@H]4[C@]3(C)CC[C@@H]12`: the minimum inhibitory concentration (MIC) was determined as 8 µg/mL (≈ 16.9 µM).

As to `CCCCC(=O)O[C@H]1C[C@@H]2[C@@]3(C)CCC[C@](C)(CC)[C@@H]3CC[C@@]2(C)[C@@H]2CC=C(C=O)[C@@]12C`, the MIC came out at 8 µg/mL (≈ 18.1 µM).

With `C[C@H]1COc2c(N3CCN(C)CC3)c(F)cc3c(=O)c(C(=O)O)cn1c23` [LEVOFLOXACIN ANHYDROUS], the MIC was determined as 0.25 µg/mL (≈ 0.692 µM).

Another assay deals with HepG2. Kind of assay: Cytotoxicity against human HepG2 cells assessed as reduction in cell viability by CCK-8 assay. It counts as functional, cell-based.
Take `CC[C@@]1(C)CCC[C@]2(C)[C@H]3C[C@H](OC(=O)CCC(C)C)[C@]4(C)C(C(=O)O)=CC[C@H]4[C@]3(C)CC[C@@H]12`: the IC50 worked out at 20.1 µM.

Consider `CCCCC(=O)O[C@H]1C[C@@H]2[C@@]3(C)CCC[C@](C)(CC)[C@@H]3CC[C@@]2(C)[C@@H]2CC=C(C=O)[C@@]12C`, for which the IC50 amounted to 32.1 µM.

As to `Cn1nnc2c(C(N)=O)ncn2c1=O` [TEMOZOLOMIDE], the IC50 was 5.9 µM.

A further assay relates to NCI-H460. Put plainly: Cytotoxicity against human NCI-H460 cells assessed as reduction in cell viability by CCK-8 assay. It counts as functional, cell-based.
In the case of `CC[C@@]1(C)CCC[C@]2(C)[C@H]3C[C@H](OC(=O)CCC(C)C)[C@]4(C)C(C(=O)O)=CC[C@H]4[C@]3(C)CC[C@@H]12`, the IC50 is 11 µM.

Take `CCCCC(=O)O[C@H]1C[C@@H]2[C@@]3(C)CCC[C@](C)(CC)[C@@H]3CC[C@@]2(C)[C@@H]2CC=C(C=O)[C@@]12C`: the IC50 is 10.2 µM.

For a further assay, the system named is Bacillus subtilis. Kind of assay: Antibacterial activity against Bacillus subtilis assessed as bacterial growth inhibition. It counts as functional.
For `CC[C@@]1(C)CCC[C@]2(C)[C@H]3C[C@H](OC(=O)CCC(C)C)[C@]4(C)C(C(=O)O)=CC[C@H]4[C@]3(C)CC[C@@H]12`, the MIC stood at 2 µg/mL (≈ 4.23 µM).

As for `CCCCC(=O)O[C@H]1C[C@@H]2[C@@]3(C)CCC[C@](C)(CC)[C@@H]3CC[C@@]2(C)[C@@H]2CC=C(C=O)[C@@]12C`, the MIC came to 2 µg/mL (≈ 4.52 µM).

As for `C[C@H]1COc2c(N3CCN(C)CC3)c(F)cc3c(=O)c(C(=O)O)cn1c23` [LEVOFLOXACIN ANHYDROUS], the MIC was 0.25 µg/mL (≈ 0.692 µM).

A further assay has as its system Pseudomonas aeruginosa. Kind of assay: Antibacterial activity against Pseudomonas aeruginosa assessed as bacterial growth inhibition. It counts as functional.
As for `CC[C@@]1(C)CCC[C@]2(C)[C@H]3C[C@H](OC(=O)CCC(C)C)[C@]4(C)C(C(=O)O)=CC[C@H]4[C@]3(C)CC[C@@H]12`, the MIC worked out at 4 µg/mL (≈ 8.46 µM).

Take `CCCCC(=O)O[C@H]1C[C@@H]2[C@@]3(C)CCC[C@](C)(CC)[C@@H]3CC[C@@]2(C)[C@@H]2CC=C(C=O)[C@@]12C`: the MIC amounted to 4 µg/mL (≈ 9.04 µM).

With `C[C@H]1COc2c(N3CCN(C)CC3)c(F)cc3c(=O)c(C(=O)O)cn1c23` [LEVOFLOXACIN ANHYDROUS], the MIC turned out to be 0.25 µg/mL (≈ 0.692 µM).

The next assay relates to Vibrio vulnificus. Kind of assay: Antibacterial activity against Vibrio vulnificus assessed as bacterial growth inhibition. It counts as functional.
With `CC[C@@]1(C)CCC[C@]2(C)[C@H]3C[C@H](OC(=O)CCC(C)C)[C@]4(C)C(C(=O)O)=CC[C@H]4[C@]3(C)CC[C@@H]12`, the MIC worked out at 4 µg/mL (≈ 8.46 µM).

Consider `CCCCC(=O)O[C@H]1C[C@@H]2[C@@]3(C)CCC[C@](C)(CC)[C@@H]3CC[C@@]2(C)[C@@H]2CC=C(C=O)[C@@]12C`, for which the MIC came out at 4 µg/mL (≈ 9.04 µM).

With `C[C@H]1COc2c(N3CCN(C)CC3)c(F)cc3c(=O)c(C(=O)O)cn1c23` [LEVOFLOXACIN ANHYDROUS], the MIC turned out to be 0.5 µg/mL (≈ 1.38 µM).

For the origin of these results see ChEMBL document CHEMBL5360590, “Phyllospongianes A-E, Dinorscalarane Sesterterpenes from the Marine Sponge Phyllospongia foliascens” (J Nat Prod, 2023).
